Each structure is given as a SMILES string. Starred links: 1 amine or outer side, 2 acyl side, 3 side chain; linkers in the order of their positions; H or OH if unused. Residues, ends and D or L forms follow the SMILES beside them. *: point of attachment. C20 diacid = O=C(O)CCCCCCCCCCCCCCCCCCC(=O)*; C18 diacid = O=C(O)CCCCCCCCCCCCCCCCC(=O)*; γGlu = O=C(O)[C@H](CCC(=O)[*:2])N[*:1]

Assay [1] has as its target T1, human amylin receptor (hAMYR3) (Homo sapiens, UniProt O60896+P30988).
T1 construct: host or cells: BHK (Baby Hamster Kidney), Hollex-1 cell line further transfected with RAMP3
Description: Human amylin receptor (hAMYR3) in vitro potency assay, CRE-luciferase reporter in BHK cells. Type of assay: cell-based. Particulars: BHK hAMYR3/CRE-Luc cells, 3 hours incubation, assay buffer with 1% ovalbumin. The procedure, abridged: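 BHK cells stably expressing human calcitonin receptor (a) plus RAMP3 and a CRE-luciferase reporter, seeded overnight, then exposed to 7-point 7-fold dilutions (often from ~10 nM) in DMEM/HEPES buffer with 1% ovalbumin for 3 h at 37 °C. Luciferase luminescence read after SteadyLite Plus addition.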

In assay [2] the target is T2, human calcitonin receptor (hCTR) (Homo sapiens, UniProt P30988).
T2 construct: host or cells: BHK (Baby Hamster Kidney), Hollex-1 cell line
T2 sequence (P30988 25-474): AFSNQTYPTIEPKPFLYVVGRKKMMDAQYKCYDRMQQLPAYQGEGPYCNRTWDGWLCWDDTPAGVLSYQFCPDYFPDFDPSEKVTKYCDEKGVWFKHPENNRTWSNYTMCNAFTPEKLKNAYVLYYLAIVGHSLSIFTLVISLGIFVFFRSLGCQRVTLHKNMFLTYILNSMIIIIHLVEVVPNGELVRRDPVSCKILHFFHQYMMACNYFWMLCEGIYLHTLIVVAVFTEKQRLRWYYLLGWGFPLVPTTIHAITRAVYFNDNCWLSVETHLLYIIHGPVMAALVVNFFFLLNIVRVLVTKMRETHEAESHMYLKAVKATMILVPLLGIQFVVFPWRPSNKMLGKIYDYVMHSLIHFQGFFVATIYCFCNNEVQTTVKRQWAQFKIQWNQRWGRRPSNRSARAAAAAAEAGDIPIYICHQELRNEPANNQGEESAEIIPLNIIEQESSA
Description: Human calcitonin receptor (hCTR) in vitro potency assay, CRE-luciferase reporter in BHK cells. Type of assay: cell-based. Particulars: BHK hCTR/CRE-Luc cells, 3 hours incubation, assay buffer with 1% ovalbumin; read-out: hCalcR potency, EC50. Summed up:
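BHK cells stably co-expressing human calcitonin receptor and a CRE-luciferase reporter, seeded the day before, were exposed to 7-fold serial dilutions (7 concentrations, often starting near 10 nM) in DMEM/HEPES/1% ovalbumin buffer for 3 h at 37 °C. Luminescence was then read after SteadyLite Plus addition.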

T1 sequence (O60896 24-148, one chain of several): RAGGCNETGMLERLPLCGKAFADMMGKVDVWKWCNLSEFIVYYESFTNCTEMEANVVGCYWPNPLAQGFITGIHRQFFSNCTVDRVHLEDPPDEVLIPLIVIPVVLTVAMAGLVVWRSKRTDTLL

By EC50 is commonly meant the concentration that produces a half-maximal response. On to `CC[C@H](C)[C@H](NC(=O)[C@@H]1CCCN1C(=O)CNC(=O)[C@H](Cc1ccccc1)NC(=O)[C@H](Cc1c[nH]cn1)NC(=O)[C@H](Cc1c[nH]cn1)NC(=O)[C@H](CC(C)C)NC(=O)[C@H](Cc1ccccc1)NC(=O)[C@H](CCC(=O)O)NC(=O)[C@H](C)NC(=O)[C@H](CC(C)C)NC(=O)[C@H](CCCNC(=N)N)NC(=O)[C@H](CCC(N)=O)NC(=O)[C@@H](NC(=O)[C@H](CCC(N)=O)NC(=O)[C@H](C)NC(=O)[C@@H](NC(=O)[C@H](CO)NC(=O)[C@H](CC(C)C)NC(=O)[C@H](Cc1c[nH]cn1)NC(=O)[C@H](CO)NC(=O)[C@H](C)NC(=O)CC[C@H](NC(=O)CCCCCCCCCCCCCCCCCCC(=O)O)C(=O)O)[C@@H](C)O)[C@@H](C)O)C(=O)N[C@@H](CC(C)C)C(=O)N1CCC[C@H]1C(=O)N1CCC[C@H]1C(=O)N[C@H](C(=O)N[C@@H](CC(=O)O)C(=O)N[C@H](C(=O)NCC(=O)N[C@@H](CO)C(=O)N[C@@H](CCC(=O)O)C(=O)N[C@H](C(=O)N1CCC[C@H]1C(N)=O)[C@@H](C)O)C(C)C)[C@@H](C)O` [Compound 4, N^1-[(4S)-4-carboxy-4-(19-carboxynonadecanoylamino)butanoyl]-[Ala1,Ser2,His3,Leu4,Ser5,Ala7,Gln8,Glu14,His17,Pro25,Pro28,Pro29,Asp31,Glu35,Pro37],des-(19-22)-human amylin] ({C20 diacid-γGlu}-ASHLSTAQTQRLAEFLHHFGPILPPTDVGSETP-NH2), for which the values for the EC50 in assay [1] and in assay [2] were 1.12 pM and 1.44 pM, respectively.

Turning to `CC[C@H](C)[C@H](NC(=O)[C@H](C)NC(=O)CNC(=O)[C@H](Cc1ccccc1)NC(=O)[C@@H]1CCCN1C(=O)[C@H](CC(=O)O)NC(=O)[C@H](CO)NC(=O)[C@H](CO)NC(=O)[C@H](Cc1c[nH]cn1)NC(=O)[C@H](Cc1c[nH]cn1)NC(=O)[C@H](CC(C)C)NC(=O)[C@H](Cc1ccccc1)NC(=O)[C@H](CCC(=O)O)NC(=O)[C@H](C)NC(=O)[C@H](CC(C)C)NC(=O)[C@H](CCCNC(=N)N)NC(=O)[C@H](CCC(N)=O)NC(=O)[C@@H](NC(=O)[C@H](CCC(N)=O)NC(=O)[C@H](C)NC(=O)[C@@H](NC(=O)[C@H](CO)NC(=O)[C@H](CC(C)C)NC(=O)[C@H](Cc1c[nH]cn1)NC(=O)[C@H](CO)NC(=O)[C@H](C)NC(=O)CC[C@H](NC(=O)CCCCCCCCCCCCCCCCC(=O)O)C(=O)O)[C@@H](C)O)[C@@H](C)O)C(=O)N1CCC[C@H]1C(=O)N[C@@H](CO)C(=O)N[C@@H](CO)C(=O)N[C@H](C(=O)N[C@@H](CC(=O)O)C(=O)N[C@H](C(=O)NCC(=O)N1CCC[C@H]1C(=O)N[C@@H](CC(=O)O)C(=O)N[C@H](C(=O)N1CCC[C@H]1C(N)=O)[C@@H](C)O)C(C)C)[C@@H](C)O` [Compound 8, N^1-[(4S)-4-carboxy-4-(17-carboxyheptadecanoylamino)butanoyl]-[Ala1,Ser2,His3,Leu4,Ser5,Ala7,Gln8,Glu14,His17,Asp21,Pro22,Pro27,Asp31,Pro34,Asp35,Pro37]-human amylin] ({C18 diacid-γGlu}-ASHLSTAQTQRLAEFLHHSSDPFGAIPSSTDVGPDTP-NH2), the half-maximal effective concentration (EC50) in assay [1] is 1.5 pM; in assay [2], 1.44 pM.

As for `CC[C@H](C)[C@H](NC(=O)[C@H](C)NC(=O)CNC(=O)[C@H](Cc1ccccc1)NC(=O)[C@@H]1CCCN1C(=O)[C@H](CC(=O)O)NC(=O)[C@H](CO)NC(=O)[C@H](CO)NC(=O)[C@H](Cc1c[nH]cn1)NC(=O)[C@H](Cc1c[nH]cn1)NC(=O)[C@H](CC(C)C)NC(=O)[C@H](Cc1ccccc1)NC(=O)[C@H](CCC(=O)O)NC(=O)[C@H](C)NC(=O)[C@H](CC(C)C)NC(=O)[C@H](CCCNC(=N)N)NC(=O)[C@H](CCC(N)=O)NC(=O)[C@@H](NC(=O)[C@H](CCC(N)=O)NC(=O)[C@H](C)NC(=O)[C@@H](NC(=O)[C@H](CO)NC(=O)[C@H](CC(C)C)NC(=O)[C@H](CO)NC(=O)CNC(=O)[C@H](C)NC(=O)CC[C@H](NC(=O)CCCCCCCCCCCCCCCCC(=O)O)C(=O)O)[C@@H](C)O)[C@@H](C)O)C(=O)N1CCC[C@H]1C(=O)N[C@@H](CO)C(=O)N[C@@H](CO)C(=O)N[C@H](C(=O)N[C@@H](CC(=O)O)C(=O)N[C@H](C(=O)NCC(=O)N1CCC[C@H]1C(=O)N[C@@H](CC(=O)O)C(=O)N[C@H](C(=O)N1CCC[C@H]1C(N)=O)[C@@H](C)O)C(C)C)[C@@H](C)O` [Compound 10, N^1-[(4S)-4-carboxy-4-(17-carboxyheptadecanoylamino)butanoyl]-[Ala1,Gly2,Ser3,Leu4,Ser5,Ala7,Gln8,Glu14,His17,Asp21,Pro22,Pro27,Asp31,Pro34,Asp35,Pro37]-human amylin] ({C18 diacid-γGlu}-AGSLSTAQTQRLAEFLHHSSDPFGAIPSSTDVGPDTP-NH2), the EC50 is 1.44 pM in assay [1] and 1.49 pM in assay [2].

For the molecule `CC[C@H](C)[C@H](NC(=O)[C@@H]1CCCN1C(=O)CNC(=O)[C@H](Cc1ccccc1)NC(=O)[C@H](CC(N)=O)NC(=O)[C@H](CC(=O)O)NC(=O)[C@H](CO)NC(=O)[C@H](CO)NC(=O)[C@H](Cc1c[nH]cn1)NC(=O)[C@H](Cc1c[nH]cn1)NC(=O)[C@H](CC(C)C)NC(=O)[C@H](Cc1ccccc1)NC(=O)[C@H](CCC(=O)O)NC(=O)[C@H](C)NC(=O)[C@H](CC(C)C)NC(=O)[C@H](CCCNC(=N)N)NC(=O)[C@H](C)NC(=O)[C@@H](NC(=O)[C@H](CCC(N)=O)NC(=O)[C@H](C)NC(=O)[C@@H](NC(=O)[C@H](CO)NC(=O)[C@H](CC(C)C)NC(=O)[C@H](Cc1c[nH]cn1)NC(=O)[C@H](CO)NC(=O)[C@H](C)NC(=O)CC[C@H](NC(=O)CCCCCCCCCCCCCCCCC(=O)O)C(=O)O)[C@@H](C)O)[C@@H](C)O)C(=O)N[C@@H](CC(C)C)C(=O)N1CCC[C@H]1C(=O)N1CCC[C@H]1C(=O)N[C@H](C(=O)N[C@@H](CC(=O)O)C(=O)N[C@H](C(=O)NCC(=O)N[C@@H](CO)C(=O)N[C@@H](CC(N)=O)C(=O)N[C@H](C(=O)N1CCC[C@H]1C(N)=O)[C@@H](C)O)C(C)C)[C@@H](C)O` [Compound 14, N^1-[(4S)-4-carboxy-4-(17-carboxyheptadecanoylamino)butanoyl]-[Ala1,Ser2,His3,Leu4,Ser5,Ala7,Gln8,Ala10,Glu14,His17,Asp21,Pro25,Pro28,Pro29,Asp31,Pro37]-human amylin] ({C18 diacid-γGlu}-ASHLSTAQTARLAEFLHHSSDNFGPILPPTDVGSNTP-NH2), the EC50 is 1.28 pM in assay [1] and 1.63 pM in assay [2].

`CC[C@H](C)[C@H](NC(=O)[C@@H]1CCCN1C(=O)CNC(=O)[C@H](Cc1ccccc1)NC(=O)[C@H](Cc1c[nH]cn1)NC(=O)[C@H](Cc1c[nH]cn1)NC(=O)[C@H](CC(C)C)NC(=O)[C@H](Cc1ccccc1)NC(=O)[C@H](CCC(=O)O)NC(=O)[C@H](C)NC(=O)[C@H](CC(C)C)NC(=O)[C@H](CCCNC(=N)N)NC(=O)[C@H](C)NC(=O)[C@@H](NC(=O)[C@H](CCC(N)=O)NC(=O)[C@H](C)NC(=O)[C@@H](NC(=O)[C@H](CO)NC(=O)[C@H](CC(C)C)NC(=O)[C@H](CCC(=O)O)NC(=O)CNC(=O)[C@H](C)NC(=O)CC[C@H](NC(=O)CCCCCCCCCCCCCCCCC(=O)O)C(=O)O)[C@@H](C)O)[C@@H](C)O)C(=O)N[C@@H](CC(C)C)C(=O)N1CCC[C@H]1C(=O)N1CCC[C@H]1C(=O)N[C@H](C(=O)N[C@@H](CC(=O)O)C(=O)N[C@H](C(=O)NCC(=O)N[C@@H](CO)C(=O)N[C@@H](CCC(=O)O)C(=O)N[C@H](C(=O)N1CCC[C@H]1C(N)=O)[C@@H](C)O)C(C)C)[C@@H](C)O` [Compound 16, N^1-[(4S)-4-carboxy-4-(17-carboxyheptadecanoylamino)butanoyl]-[Ala1,Gly2,Glu3,Leu4,Ser5,Ala7,Gln8,Ala10,Glu14,His17,Pro25,Pro28,Pro29,Asp31,Glu35,Pro37],des-(19-22)-human amylin] ({C18 diacid-γGlu}-AGELSTAQTARLAEFLHHFGPILPPTDVGSETP-NH2): the half-maximal effective concentration (EC50) in assay [1] was 1.25 pM; in assay [2], 1.03 pM.

Source of the values: patent publication US12116388B2, “Amylin receptor agonists” (Novo Nordisk A/S, priority 2022, dated 2024).
